Earlier results on 1 compound are cited in patent publication US20130287890A1, “INHIBITOR OF THE PRODUCTION OF ADVANCED GLYCATION END PRODUCTS” (UENO FINE CHEMICALS INDUSTRY, LTD., priority 2012, published 2013).

The conditions of the data set: background art; cited from earlier work.

Take `N=C(N)NN` [Aminoguanidine, aminoguanidine]: the adverse drug reactions entry is on record as “hepatic impairment”.
